Data reported in publication PMC10496123, “Potent Antifungal Activity of Penta-O-galloyl-β-D-Glucose against Drug-Resistant Candida albicans, Candida auris, and Other Non-albicans Candida Species” (ACS Infectious Diseases, 2023).
≈ marks a conversion by molar mass, not a printed value. Entries after “also recorded” stand apart in the source; their conditions may differ.

What was measured:
Candida albicans = assay: Growth inhibition by CLSI microbroth dilution; assay type: cell-based; conditions: for MIC / IC50: Candida albicans, 48 h; for MIC: >90% growth inhibition
Candida parapsilosis = assay: Growth inhibition by CLSI microbroth dilution; assay type: cell-based; conditions: for IC50 / MIC: 48 h; for IC50: >50% growth inhibition; for MIC: >90% growth inhibition
Candida glabrata = assay: Growth inhibition by CLSI microbroth dilution; assay type: cell-based; conditions: for IC50 / MIC: Nakaseomyces glabratus, 48 h; for IC50: >50% growth inhibition; for MIC: >90% growth inhibition
Candida auris = assay: Growth inhibition by CLSI microbroth dilution; assay type: cell-based; conditions: Candidozyma auris, 48 h
[1] = tested on: C. albicans wild type (SN95, SN152) and ire1Δ/Δ, hap43Δ/Δ, rim101Δ/Δ; assay: microbe, parasite or virus in culture; assay type: cell-based, Candida albicans; conditions: for MIC90: Candida albicans, 48 h, 30 °C
C. albicans [2] = assay: Concentration-response matrixes (checkerboard assays); assay type: cell-based, Candida albicans; conditions: FICI at 90% growth inhibition, 48 h, 30 °C
C. albicans [3] = assay: Ergosterol binding assay (growth inhibition with exogenous ergosterol); assay type: cell-based, Candida albicans; conditions: 80 μg mL^–1 exogenous ergosterol, 1×–4× MIC, 24 h
Description: Ergosterol binding was measured using a previously described method,[60] with some modifications. Briefly, ergosterol (TCI) was pulverized with a sterile pestle and mortar and then dissolved in 100% ethanol. The resultant emulsion was warmed at 37 °C for 15 min and then sonicated for 45 min prior to use. […] The negative control was untreated culture. A media blank was used to monitor for contamination. Experiments were repeated in triplicate with three technical replicates per treatment and on different days. page 5: Figure S4. Growth inhibition of penta-O-galloyl-β-D-glucose against C. albicans not affected by additional ergosterol. C. albicans was treated with PGG or […] mL-1). After 24 hours, treatment groups were measured for growth inhibition. The data are plotted as mean % growth inhibition ± SD as compared to vehicle controls from three independent experiments . Dotted line represents 90% growth inhibition . S5 (1 picture or pasted object on this page, not shown here)

C. albicans 90028 = assay: Iron supplementation growth inhibition assay; assay type: cell-based, Candida albicans; conditions: 10 mM iron (II) or iron (III); PGG 4–16 μg mL^–1; 48 h
Description: (§1) For iron supplementation assays, growth inhibition assays were performed by microbroth dilution following the guidelines set by the CLSI.[58] A solution of iron (II) sulfate and iron (III) sulfate (VWR) was dissolved in deionized water to a concentration of 10 mM and added to treated wells at the beginning of incubation. Growth inhibition was measured after 48 h. Percent growth inhibition was determined by comparing treatments to vehicle controls. Iron supplementation experiments were repeated in duplicate with three technical replicates per treatment and on different days.

C. auris CDC381 = assay: Iron supplementation growth inhibition assay; assay type: cell-based, Candida auris; conditions: 10 mM iron (II) or iron (III); PGG 4–16 μg mL^–1; 48 h
Description: as §1

[4] = tested on: drug-sensitive C. albicans; assay: Growth inhibition in fungal growth media with 10% FBS; assay type: cell-based, Candida albicans; conditions: 10% fetal bovine serum; concentrations up to 512 μg mL^–1; data not shown
[5] = tested on: Acinetobacter baumannii (various strains); parameters: method as in PMID 32948818; conditions: antibacterial; possibly iron chelation; cited from earlier work
SK-HEP-1 cells = tested on: SK-HEP-1 cells; parameters: method as in PMID 11675148; conditions: inhibition of proliferation; cited from earlier work
HT-29 cells = tested on: HT-29 cells; parameters: method as in PMID 27196315, PMID 29778287; conditions: inhibition of proliferation; cited from earlier work
MDA-MB-231 = tested on: MDA-MB-231; parameters: method as in PMID 33707603; conditions: induction of apoptosis; cited from earlier work
mice = conditions: 20 mg/kg/day orally in mice; cited from earlier work
humans = conditions: balloon catheter, 3 mg/mL over 25 mL; cited from earlier work
[6] = cited from earlier work

Compound: O=C(OC[C@H]1O[C@@H](OC(=O)c2cc(O)c(O)c(O)c2)[C@H](OC(=O)c2cc(O)c(O)c(O)c2)[C@@H](OC(=O)c2cc(O)c(O)c(O)c2)[C@@H]1OC(=O)c1cc(O)c(O)c(O)c1)c1cc(O)c(O)c(O)c1 [PGG, penta-O-galloyl-β-D-glucose]
- MIC (Candida albicans; ATCC90028, strain ATCC 90028): 1 µg/mL (≈ 1.06 µM)
- IC50 (Candida albicans; ATCC90028, strain ATCC 90028, lowest concentration with >50% growth inhibition): 0.5 µg/mL (≈ 0.532 µM)
- IC50 (Candida albicans; strain MH12, >50% growth inhibition): 0.25 µg/mL (≈ 0.266 µM)
- MIC (Candida albicans; strain MH12): 0.5 µg/mL (≈ 0.532 µM)
- MIC (range over strains) (Candida albicans; two strains of C. albicans): 0.5 to 1.0 μg mL^–1
- IC50 (Candida parapsilosis; strain AR Bank #0335): 1 µg/mL (≈ 1.06 µM)
- MIC (Candida parapsilosis; strain AR Bank #0335): 4 µg/mL (≈ 4.25 µM)
- IC50 (Candida parapsilosis; strain AR Bank #0337): 0.5 µg/mL (≈ 0.532 µM)
- MIC (Candida parapsilosis; strain AR Bank #0337): 0.5 µg/mL (≈ 0.532 µM)
- IC50 (Candida parapsilosis; strain AR Bank #0338): 0.25 µg/mL (≈ 0.266 µM)
- MIC (Candida parapsilosis; strain AR Bank #0338): 0.5 µg/mL (≈ 0.532 µM)
- IC50 (Candida parapsilosis; strain AR Bank #0339): 0.5 µg/mL (≈ 0.532 µM)
- MIC (Candida parapsilosis; strain AR Bank #0339): 1 µg/mL (≈ 1.06 µM)
- MIC (range over strains) (Candida parapsilosis; four strains of C. parapsilosis): 0.5 to 4.0 μg mL^–1
- IC50 (Candida glabrata; strain AR Bank #0325): 0.25 µg/mL (≈ 0.266 µM)
- MIC (Candida glabrata; strain AR Bank #0325): 0.5 µg/mL (≈ 0.532 µM)
- IC50 (Candida glabrata; strain AR Bank #0326): 0.125 µg/mL (≈ 0.133 µM)
- MIC (Candida glabrata; strain AR Bank #0326): 0.25 µg/mL (≈ 0.266 µM)
- MIC (range over strains) (Candida glabrata; two strains of C. glabrata): 0.25 to 0.5 μg mL^–1
- MIC (Candida auris; strain AR Bank #0381, >90% growth inhibition): 0.25 µg/mL (≈ 0.266 µM)
- IC50 (Candida auris; strain AR Bank #0387, >50% growth inhibition): 0.5 µg/mL (≈ 0.532 µM)
- MIC (Candida auris; strain AR Bank #0387, >90% growth inhibition): 1 µg/mL (≈ 1.06 µM)
- IC50 (Candida auris; strain AR Bank #0390, >50% growth inhibition): 4 µg/mL (≈ 4.25 µM)
- MIC (Candida auris; strain AR Bank #0390, >90% growth inhibition): 8 µg/mL (≈ 8.5 µM)
- MIC90 ([1]; Wild type (SN95)): > 20 µg/mL
- MIC90 ([1]; Wild type (SN152)): > 20 µg/mL
- MIC90 ([1]; hap43Δ/Δ): 0.625 µg/mL (≈ 0.664 µM)
- MIC90 ([1]; ire1Δ/Δ): 0.625 µg/mL (≈ 0.664 µM)
- MIC90 ([1]; rim101Δ/Δ): 0.625 µg/mL (≈ 0.664 µM)
- Effect of deletion of IRE1, HAP43 and RIM101 on sensitivity ([1]; mutants versus wild type): hypersensitive; also recorded: hypersensitivity
- Synergistic interaction with caspofungin (C. albicans [2]; C. albicans ATCC 90028): does not potentiate
- Synergistic interaction with fluconazole (C. albicans [2]; azole-tolerant clinical isolate CaCi-2): does not potentiate
- Growth inhibitory activity with additional ergosterol (C. albicans [3]): not affected
- Reduction of the growth inhibitory activity on iron supplementation (C. albicans 90028): 80–100%
- Reduction of the growth inhibitory activity on iron supplementation (C. auris CDC381): 80–100%
- Growth inhibition in serum-supplemented medium [4]: loss of growth inhibition
- IC50/EC50 [5]: 16 to 64 µg/mL
- IC50/EC50 (SK-HEP-1 cells): 25 to 50 µM
- IC50/EC50 (HT-29 cells): 4.46 µM
- IC50/EC50 (MDA-MB-231): 50.23 µM
- Tolerability (mice): tolerated without ill effects
- Safety in humans (humans): safely
- Efflux ratio [6]: high efflux ratio
